Like-named read-outs stand apart in the source and are kept apart here.

The nature of series [1]: Determination of carbamate half-lives: conversion of carbamate to 4-methoxyphenol in phosphate buffer, HPLC. The format is physicochemical. The procedure:
[…] The resulting solution was heated at 37° while 20 μL samples were removed at intervals and injected directly into the HPLC injection port.
Unreacted carbamate and 4-methoxyphenol concentrations were determined by HPLC analysis with a C-18 reverse phase column using a mobile phase of 87.5% pH 2.4 phosphoric acid and 12.5% acetonitrile. The UV detector was set at 220 nm. The half-life (t1/2) is the time required for 50% conversion of carbamate to 4-methoxyphenol. Compounds (1), (2) and (3) are the preferred prodrugs for the treatment of melanomas.

The test system of another series is melanoma. Conditions: cited from earlier work.
Series [2] relates to melanoma cells that contain tyrosinase. The settings on record: Riley 1985; cited from earlier work.
The conditions of series [3]: after intra-arterial injection; cited from earlier work.
For another series, the system named is DNA synthesis. The settings on record: cited from earlier work.
A further series is described as follows: pKa. The format is physicochemical.
The nature of series [4]: Partition coefficient, octanol/pH 7.4 buffer. It counts as physicochemical.
Where [5] appears, read: pH 6.8, pH 6.8, 37° (Table I), read-out: t1/2.
[6] abbreviates: pH 7.4, pH 7.4 phosphate buffer, 37° (Table I), read-out: t1/2 (time required for 50% conversion of carbamate to 4-methoxyphenol).

Turning to `COc1ccc(OC(=O)N(C)CCN(C)C)cc1`, the results for the half-life in series [1] (setting [5]) and in series [1] (setting [6]) were 3.23 h and 0.9 h, respectively. For the molecule `CCNCCN(CC)C(=O)Oc1ccc(OC)cc1`, the half-life in series [1] (setting [6]) worked out at 2.38 h.

For `COc1ccc(OC(=O)N(C)CCN)cc1`, the half-life in series [1] (setting [6]) turned out to be 7.7 h. Regarding `CNCCCN(C)C(=O)Oc1ccc(OC)cc1`, the half-life in series [1] (setting [6]) turned out to be 24.1 h. Regarding `COc1ccc(O)cc1` [4-Hydroxyanisole, 4-hydroxyanisole], the “results of subsequent studies” value in the series with melanoma (intra-arterial infusion) is on record as “more promising results”. In the series on melanoma (intralesional injection or i.v. infusion), the “results of early clinical trials” value was “disappointing”. Also, the “oxidation by tyrosinase and toxicity to melanoma cells” value in series [2] is “oxidized by tyrosinase to highly cytotoxic products and consequently is preferentially toxic to those melanoma cells that contain the enzyme”. Also, the half-life in blood in series [3] was 9 min. The “effect on DNA synthesis” value with DNA synthesis is reported as “inhibits DNA synthesis”. As to `COc1ccc(OC(=O)NCCCN)cc1.Cl` [(5), N-[3-Aminopropyl]carbamic acid 4-methoxyphenyl ester hydrochloride], in series [1] (setting [6]), the half-life is 12 h. Consider `COc1ccc(OC(=O)NCCN)cc1` [(6)], for which the half-life in series [1] (setting [6]) was found to be 12.1 h. For `CNCCNC(=O)Oc1ccc(OC)cc1` [(7)], the half-life in series [1] (setting [6]) amounted to 12.4 h. As to `CNCCN(C)C(=O)Oc1ccc(OC)cc1` [Compound IV], the half-life in series [1] (pH 7.4, phosphate buffer, pH 7.4 (37°), read-out: half-life of release of 4-hydroxyanisole) worked out at 0.6 h. The molecule further displayed a pKa in the series “pKa” of 8.88. The logD in series [4] is -1.02. With `CNCCN(C)C(=O)Oc1ccc(OC)cc1` [drawing 8], the half-life in series [1] (setting [5]) turned out to be 2.33 h; in series [1] (setting [6]), 0.605 h.
